“And” between values parts separate entries of the source, which are not always exact repeats. Identical values can stand only once. Like-named read-outs stand apart in the source and are kept apart here.
Target: recombinant active human PAI-1 (Homo sapiens (Human), UniProt P05121)
Test: Fluorometric PAI-1/uPA IC50 plate assay at pH 7.4
Type: biochemical
Procedure: To determine the efficacy of various synthesized compounds as PAI-1 inhibitors, a fluorometric plate assay was carried out to measure the half maximal inhibitory concentration (IC50) of these compounds on recombinant active human PAI-1 in vitro. An IC50 is a measure of the effectiveness of a compound in inhibiting biological or biochemical function. Stated another way, IC50 represents the concentration of a drug that is required for 50% inhibition in vitro.
PAI-1 inhibitor compounds were dissolved in DMSO to a final concentration of (10-50 mM), depending upon solubility. Compounds were then diluted in physiologic buffer (40 mM HEPES, 100 mM NaCl, 0.05% Tween-20, pH7.4) containing 10% DMSO and a dilution series (from 0 to 1000 uM depending on solubility) was prepared. 80 μL of compound was added per well to a 96-well black, opaque microplate in duplicate. 10 μL of 20 nM Recombinant active human PAI-1 (Molecular Innovations) in physiologic buffer (40 mM HEPES, 100 mM NaCl, 0.05% Tween-20, 10% DMSO, pH 7.4), or […] physiologic buffer with 10% human plasma, was added and the mixture was agitated for 15 minutes at room temperature. 10 μL of 25 nM uPA (Rheotromb®) was added to each reaction well and the plate was agitated for an additional 30 minutes at room temperature. Tripeptide aminomethylcoumarin Gly-Gly-Arg-AMC (Calbiochem) fluorogenic substrate (100 μL of 100 μM) was then added and residual uPA activity was determined based upon cleavage of this substrate. The rate of AMC release by uPA (fluorescence) was measured at an excitation wavelength of 370 nm and an emission wavelength of 440 nm. Controls included PAI-1 and uPA in the absence of compound and uPA alone. Percent PAI-1 inhibition was calculated using the following formula: [(uPA alone-uPA/PAI-1+ compound)/(uPA alone-PAI-1/uPA)]*100%. The IC50 was calculated using Graphit (IC50 0-100%).

[1] = physiologic buffer (40 mM HEPES, 100 mM NaCl, 0.05% Tween-20, 10% DMSO), read-out: PAI-1/uPA IC50 in buffer
[2] = physiologic buffer with 1.5% BSA (15 mg/mL), read-out: PAI-1/uPA IC50 in 1.5% BSA buffer
[3] = physiologic buffer with 10% human plasma, read-out: PAI-1/uPA IC50 in 10% plasma buffer

Sequence of recombinant active human PAI-1 (P05121 24-402): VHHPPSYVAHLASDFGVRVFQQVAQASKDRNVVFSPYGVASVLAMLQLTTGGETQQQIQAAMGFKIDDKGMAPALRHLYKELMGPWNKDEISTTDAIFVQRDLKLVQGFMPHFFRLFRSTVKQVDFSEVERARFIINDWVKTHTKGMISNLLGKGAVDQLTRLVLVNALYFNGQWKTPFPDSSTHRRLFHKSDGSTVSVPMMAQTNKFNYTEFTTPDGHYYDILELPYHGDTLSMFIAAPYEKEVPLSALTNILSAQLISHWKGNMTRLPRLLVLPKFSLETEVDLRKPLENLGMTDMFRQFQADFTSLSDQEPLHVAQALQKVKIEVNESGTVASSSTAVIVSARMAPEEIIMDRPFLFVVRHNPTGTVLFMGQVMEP

IC50 [1]	IC50 [2]	IC50 [3]	Structure (SMILES)
2890 µM and 3140 µM	625 µM and 760 µM	526 µM	CCOC(=O)C(=O)NCc1ccc(Br)cc1 [C259]
475 µM	898 µM	533 µM	O=C(NCc1cccc(C(F)(F)F)c1)c1ccc(O)c(O)c1 [C364]
135 µM and 134 µM	65 µM	77 µM	NNC(=O)C(=O)NCc1cccc(OC(F)(F)F)c1 [C268]
2060 µM and 1780 µM	221 µM and 292 µM	279 µM	NNC(=O)C(=O)NCc1ccc(OC(F)(F)F)cc1 [C255]
199 µM	751 µM	309 µM	O=C(NCc1ccc(C(F)(F)F)cc1)c1ccc(O)c(O)c1 [C363]
1340 µM	776 µM	736 µM	COc1cccc(CNC(=O)C(=O)NN)c1 [C295]
329 µM	513 µM	693 µM	CONC(=O)C(=O)NCc1ccc(Cl)c(C(F)(F)F)c1 [C320, N-(4-chloro-3-(trifluoromethyl)benzyl)-N′-methoxyoxalamide]
1100 µM	1240 µM	544 µM	O=C(CCc1ccc(O)c(O)c1)NCc1cc(F)c(F)c(F)c1 [C356]
1200 µM	532 µM	490 µM	CC(C)=NNC(=O)C(=O)NCc1cc(F)cc(F)c1 [C313]
189 µM			O=C(NCc1ccc(Cl)c(C(F)(F)F)c1)C(=O)NNS(=O)(=O)c1ccccc1 [C334]
3770 µM and 3910 µM	2220 µM and 1970 µM	1210 µM	CCCCCCNC(=O)C(=O)NN [C240]
5470 µM	892 µM	851 µM	N#Cc1ccc(CNC(=O)C(=O)NN)cc1 [C336]
102 µM and 103 µM	68 µM and 86 µM	69 µM	NNC(=O)C(=O)NCc1ccc(F)c(C(F)(F)F)c1 [C261]
422 µM and 388 µM	265 µM	306 µM	O=C(NCc1ccc(Cl)c(C(F)(F)F)c1)c1n[nH]c(=O)o1 [C285, N-(4-chloro-3-(trifluoromethyl)benzyl)-5-oxo-4,5-dihydro-1,3,4-oxadiazole-2-carboxamide]
3790 µM			CCOC(=O)C(=O)NCc1cccc(C(F)(F)F)c1 [C267]
751 µM and 719 µM	165 µM and 158 µM	148 µM and 142 µM	COC(=O)CCC(=O)NCc1ccc(Cl)c(C(F)(F)F)c1 [C277]
5490 µM			Cc1cc(Cl)ccc1CNC(=O)C(=O)NO [C300]
2910 µM	1060 µM	752 µM	COC(=O)CCC(=O)NCc1cccc(C(F)(F)F)c1 [C288]
900 µM	1460 µM	1870 µM	Cc1ccc(F)cc1CNC(=O)C(=O)NN [C341]
2730 µM	1100 µM	733 µM	NNC(=O)CCC(=O)NCc1cccc(C(F)(F)F)c1 [C289]
173 µM	128 µM	106 µM	NNC(=O)C(=O)NCc1cccc(Cl)c1Cl [C301]
14.8 µM			O=C1Cc2cc(-c3csc(-c4ccc(O)c(O)c4)n3)ccc2N1 [C228]
640 µM and 642 µM	118 µM and 130 µM	142 µM	NNC(=O)CCC(=O)NCc1ccc(Cl)c(C(F)(F)F)c1 [C278]
162 µM	90 µM	74 µM	NNC(=O)C(=O)NCc1cc(F)c(F)c(F)c1 [C304]
1500 µM	1230 µM	619 µM	Cc1cc(CNC(=O)CCc2ccc(O)c(O)c2)ccc1F [C358]
533 µM	353 µM	229 µM	Cc1ccc(CNC(=O)C(=O)NN)cc1 [C362]
1290 µM			O=C1Cc2cc(S(=O)(=O)NCCc3ccccc3)ccc2N1 [C229, 2-oxo-N-phenethylindoline-5-sulfonamide]

IC50 [1]	IC50 [2]	IC50 [3]	Structure (SMILES)
136 µM	111 µM	87 µM	NNC(=O)C(=O)NCc1cccc(C(F)(F)F)c1 [C297]
205 µM			COc1ccc(-c2nc(-c3ccc4c(c3)CC(=O)N4)cs2)cc1OC [C227, 5-(2-(3,4-dimethoxyphenyl)thiazol-4-yl)indolin-2-one]
282 µM	247 µM	303 µM	NNC(=O)C(=O)NCc1cc(C(F)(F)F)cc(C(F)(F)F)c1 [C339]
2290 µM			COc1ccc(CNC(=O)C(=O)NN)c(OC)c1 [C281]
1930 µM			CCCCCNC(=O)C(=O)NN [C241]
164 µM	1670 µM	771 µM	O=C(NCc1ccc(Br)cc1)c1ccc(O)c(O)c1 [C360]
465 µM	99 µM	101 µM	NNC(=O)C(=O)NCc1ccc(Cl)cc1F [C307]
170 µM and 187 µM	63 µM and 84 µM	86 µM	Cc1cc(CNC(=O)C(=O)NN)ccc1F [C262]
147 µM and 187 µM		525 µM	NNC(=O)C(=O)NCc1ccc(Br)cc1 [C260]
1190 µM	363 µM	304 µM	NNC(=O)CCC(=O)NCc1ccc(F)c(C(F)(F)F)c1 [C287]
1040 µM and 1350 µM	204 µM and 235 µM	214 µM	CCOC(=O)C(=O)NCc1ccc(Cl)c(C(F)(F)F)c1 [C256, ethyl 2-((4-chloro-3-(trifluoromethyl)benzyl)amino)-2-oxoacetate]
207 µM and 203 µM	166 µM and 159 µM	168 µM	O=C(NO)C(=O)NCc1ccc(Cl)c(C(F)(F)F)c1 [C280]
4020 µM			CCOC(=O)C(=O)NCc1cccc(Cl)c1 [C265]
1000 µM	830 µM	866 µM	O=C(CCc1ccc(O)c(O)c1)NCc1cccc(C(F)(F)F)c1 [C344]
68.6 µM and 76 µM	110 µM and 123 µM	108 µM	NNC(=O)C(=O)NCc1ccc(Cl)c(C(F)(F)F)c1 [C251]
1370 µM	1230 µM	567 µM	O=C(CCc1ccc(O)c(O)c1)NCc1cccc(OC(F)(F)F)c1 [C357]
3370 µM	2080 µM	974 µM	O=C(CCc1ccc(O)c(O)c1)NCc1ccc(Cl)cc1 [C359]
888 µM	309 µM	293 µM	O=C(Cc1ccc(O)c(O)c1)NCc1ccc(Cl)c(C(F)(F)F)c1 [C347]
1160 µM	403 µM	405 µM	Cc1ccc(CNC(=O)c2n[nH]c(=O)o2)cc1F [C306]
238 µM	739 µM	628 µM	Cc1cc(Cl)ccc1CNC(=O)c1n[nH]c(=O)o1 [C299]
353 µM			O=C(/C=C/c1ccc(O)c(O)c1)NCc1ccc(Cl)c(C(F)(F)F)c1 [C346]
99 µM	454 µM	240 µM	O=C(NCc1ccc(Cl)c(C(F)(F)F)c1)c1ccc(O)c(O)c1 [C348]
163 µM			O=C1Cc2cc(C(=O)CNCCNCC(=O)c3ccc4c(c3)CC(=O)N4)ccc2N1 [C225, 5,5′-(2,2′-(ethane-1,2-diylbis(azanediyl))bis(acetyl))bis(indolin-2-one)]
4320 µM			COc1cc(CNC(=O)C(=O)NN)cc(OC)c1 [C322]
1440 µM	428 µM	476 µM	COC(=O)CCC(=O)NCc1ccc(F)c(C(F)(F)F)c1 [C276]
225 µM and 219 µM	163 µM and 154 µM	121 µM	Cc1cc(Cl)ccc1CNC(=O)C(=O)NN [C282]
224 µM	81 µM	62 µM	Cc1ccc(CNC(=O)C(=O)NN)cc1F [C305]

Reference: US9718760B2, “Plasminogen activator inhibitor-1 inhibitors and methods of use thereof” (THE REGENTS OF THE UNIVERSITY OF MICHIGAN, priority 2012, dated 2017)
